Measured values as given in US20220259302A1, “METHODS AND COMPOSITIONS FOR THE IMPROVEMENT OF LYSOSOMAL FUNCTION AND TREATMENT OF NEURODEGENERATIVE DISEASE” (VANDERBILT UNIVERSITY, priority 2017, published 2022).
“Also recorded” adds a separate entry of the source.

What was measured:
[1] = system: p62-positive aggregates in hippocampus; assay: p62-positive aggregates in hippocampus of aging mice after long-term treatment in drinking water; type: in vivo, mouse
Procedure: Female C57BL6 mice received apocynin (50 mg/kg) or C3 (1 mg/kg/day) in their water from 12-17 mos of age, then perfused. Fixed brain were sectioned, and immunostained for p62. Confocal images were analyzed for 6 hippocampi/three sections per mouse, 4 mice per group. To quantify the p62-containing aggregates, aggregates were individually circled in the depicted region by a blinded investigator, and aggregate areas measured using ImageJ. Areas covered by aggregates, and number of clusters, are shown. Mean±SEM, *p<0.05, ***p<0.001, Mann-Whitney Rank Sum test. Animal studies were approved by the Animal Care Program at the University of California, San Diego, and Vanderbilt University Medical Center and are in accordance with the PHS Guide for the Care and Use of Laboratory Animals, USDA Regulations, and the AVMA Panel on Euthanasia. Young (3 to 5 month) and old (17 to 27 month) C57BL/6 mice, Tam-Thy1-YFP-Crc, tdTomato or 24 month old GFAP/GFP transgenic mice (JAX, 010835) were used for experiments. Lines which have the Tam-Thy1-YFP-Cre express both the Cre recombinase and YFP under control of the Thy1 promoter, which drives expression in a majority of hippocampal and cortical excitatory neurons, but not inhibitory neurons. Tam-Thy1-YFP-Cre:Stat3flox/flox (TF) mice have been generated, and have also been crossed with the Rosa26-tdTomato reporter mouse line to produce Tam-Thy1-YFP-Cre:Stat3flox/flox:tdTom (TFTD) mice. These reporter mice will express tdTom fluorescence in response to tamoxifen. […] The sections were kept in 30% sucrose, 30% ethylene glycol, and 1% PVP-40 at −20° C. until they were ready to be processed for immunostaining. […] With HRP-conjugated secondary antibodies, fluorescence was developed with fluorescein or cyanine 3 TSA amplification systems. […] Images were then analyzed and processed using Metamorph or Fiji software. To quantify the clusters of p62-containing aggregates, images were taken for 6 hippocampal regions from three sections per mouse, with 4 mice for each group. […]

[2] = system: lamp1-positive lysosomes in neurons; assay: intracellular lysosome size in neurons of aged mice (lamp1 and CatD immunostaining); type: in vivo, mouse; conditions: aged mice treated with apocynin compared to water
Text: Brain sections from 5 month and 20 month old female mice were immunostained with antibodies against lamp1 and parvalbumin (PV), chosen to allow lysosomes in individual neurons to be analyzed. In old versus young animals, lamp1-labeled lysosomes are larger in both PV neurons as well as surrounding pyramidal neurons. Lysosomes in PV neurons were quantified in 1 μm thick optical sections with ImageJ using Analyze Particles function; n=8 young, n=7 old. *p<0.001, Mann-Whitney Rank Sum test.
Mice were treated with apocynin in drinking water (initial dose 5 mg/kg and then ramping up to 100 mg/kg) beginning at 12 months old for 5 months. […]
An antigen retrieval method was performed on the sections for most antigens by heating in 10 mM citrate buffer (pH 6.0) for 10 minutes at 90° C. […] With HRP-conjugated secondary antibodies, fluorescence was developed with fluorescein or cyanine 3 TSA amplification systems. […]
Images were captured using Zeiss LSM 510 or LSM 810 multiphoton laser confocal microscopes. […] Images were then analyzed and processed using Metamorph or Fiji software. To quantify the clusters of p62-containing aggregates, images were taken for 6 hippocampal regions from three sections per mouse, with 4 mice for each group. Hippocampal regions were divided into different subregions, and p62 clusters were counted. […]

lysosomal v-ATPase = lysosomal v-ATPase (Homo sapiens, UniProt P27449); conditions: direct inhibition of lysosome acidification; cited from earlier work
Chain of lysosomal v-ATPase (P27449 whole entry): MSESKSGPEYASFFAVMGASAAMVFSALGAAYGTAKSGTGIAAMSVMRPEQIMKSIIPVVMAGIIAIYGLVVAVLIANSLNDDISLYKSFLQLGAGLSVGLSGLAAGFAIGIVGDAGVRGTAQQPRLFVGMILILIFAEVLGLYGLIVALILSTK
Chain of lysosomal v-ATPase (P38606 whole entry partner): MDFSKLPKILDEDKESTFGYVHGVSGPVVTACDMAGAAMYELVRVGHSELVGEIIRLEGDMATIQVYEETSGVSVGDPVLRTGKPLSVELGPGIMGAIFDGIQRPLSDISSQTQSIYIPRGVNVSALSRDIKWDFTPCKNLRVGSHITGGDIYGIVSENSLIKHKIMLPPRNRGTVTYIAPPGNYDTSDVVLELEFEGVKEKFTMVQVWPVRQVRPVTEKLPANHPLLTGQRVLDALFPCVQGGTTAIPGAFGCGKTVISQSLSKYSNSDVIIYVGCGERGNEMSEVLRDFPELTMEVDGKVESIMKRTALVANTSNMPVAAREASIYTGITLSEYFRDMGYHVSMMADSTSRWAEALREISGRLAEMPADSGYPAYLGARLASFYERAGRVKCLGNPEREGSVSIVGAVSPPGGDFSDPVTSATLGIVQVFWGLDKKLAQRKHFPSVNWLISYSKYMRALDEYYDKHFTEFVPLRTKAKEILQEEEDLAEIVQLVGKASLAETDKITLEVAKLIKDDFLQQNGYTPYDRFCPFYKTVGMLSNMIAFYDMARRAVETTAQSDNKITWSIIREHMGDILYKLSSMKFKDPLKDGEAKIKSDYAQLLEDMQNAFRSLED

Nox2, Nox4 and p22phox = assay: Nox induction in brain of mice injected with IL-6 (qRT-PCR, Western blot, immunostaining); type: in vivo, mouse; conditions: 4 month and 24 month-old C57Bl/6 mice, IL-6 5 μg/kg on two consecutive days
Procedure: These are the first data showing that inhibiting Nox activity can improve lysosome function in brain in vivo. […] Based on the observation herein that IL-6 is responsible for Nox2 induction in aging brain, and thus here, it is determined whether IL-6 mediates lysosome dysfunction. […] have a targeted deletion of Stat3 in neurons, and pharmacological inhibition of Nox-derived superoxide production can be used to test each of these possibilities. […] This increase occurred not only in microglia, but cortical and hippocampal neurons, and in synaptosomes. To confirm anti-Nox2 Ab specificity, slices and tissue from gp91phox−/− (Nox2−/−) mice were always included as controls.

mouse cortical cultures = assay: lysosome degradation of proteins in mouse cortical cultures exposed to IL-6; type: cell-based
Procedure: Also, IL-6 can induce expression of inflammatory mediators, including TNFα, IL-6, IL-1β, Nox2 and Nox4, through both canonical pTyr-Stat3 transcription, and through noncanonical Stat3 NFκB transcription. Here, primary mouse cultures can be prepared on coverslip dishes as described and treated with IL-6 (10 ng/ml and 100 ng/ml) or a vehicle controls (media), daily for 4 days. Bafilomycin (100 nM) can be included in some dishes as a positive control for direct v-ATPase inhibition. Cultures can be fixed with 4% paraformaldehyde (PFA), and immunostained. Based on the data, accumulation of large lamp1 and p62-positive lysosomes in IL-6 and BAF treated cells can be observed. To then assess the role of redox effects on the v-ATPase, cultures can be co-treated with one of three antioxidants, TEMPOL (general radical scavenging), the C3 compound (catalytic superoxide dismutase, to reduce Nox-derived superoxide, regardless of isoform(s) which are contributing), and N-acetyl cysteine (to increase glutathione levels). When the v-ATPase is inhibited through its redox site, antioxidant treatment can prevent accumulation of undigested contents (p62, lamp1), and prevent enlargement of lysosomes. […]

COc1cc(C(C)=O)ccc1O [apocynin]
cargo clearance ([1]; apocynin 100 mg/kg/day, as in FIG. 5): improved cargo clearance
accumulation of p62 aggregates (number and size of p62-positive aggregates) in hippocampus ([1]; female C57BL6 mice, in drinking water from 12-17 mos of age, apocynin 50 mg/kg/day, C3 1 mg/kg/day): reduction of both the number, and size of p62-positive aggregates; also recorded: reduces hippocampal aggregates; also recorded: lessons the accumulation of p62 aggregates
undegraded lysosome material throughout brain ([1]; mice treated with apocynin (FIG. 5)): robust and highly significant reduction in undegraded lysosome material throughout brain
size of lysosomes in neurons (lamp1 and CatD immunostaining) [2]: significant normalization (reduction) of intracellular lysosome size; also recorded: significantly reduced the size of lysosomes

CO/C1=C\C(C)=C\[C@@H](C)[C@@H](O)[C@@H](C)C/C(C)=C/C=C/[C@H](OC)[C@@H]([C@@H](C)[C@@H](O)[C@H](C)[C@@]2(O)C[C@@H](O)[C@H](C)[C@@H](C(C)C)O2)OC1=O [bafilomycin]
lysosome size (lysosomal v-ATPase): rapidly increases lysosome size within hours

IL-6: inflammatory cytokine interleukin-6
induction of Nox2, Nox4 and p22phox in brain (Nox2, Nox4 and p22phox): induction of Nox2, Nox4 and p22phox
lysosome degradation of proteins, including p62 (mouse cortical cultures): impairs lysosome degradation of proteins
